From patent US20230338495A1, “Vaccine Compositions and Antibodies For Lyme Disease” (priority 2020, published 2023)

What was measured:
[1] = test system: IgM in Lyme Disease patient sera; experiment: MSD-ECL assay with Biotin-BBGL-1 / Biotin-BBGL-2 coated streptavidin plates, anti-IgM detection; type: binding, human; settings: biotinylated antigen coated at 1 ug/mL; for IgM titer, EU: NC= 189.75
Procedure: (§1) A Meso Scale Discovery Electrochemiluminescence (MSD-ECL) assay was developed using Biotin-BBGL-1 and Biotin-BBGL-2 to measure antibody titers in Lyme Disease patient samples. The assay involved first blocking MSD streptavidin gold plate with 4% BGG (bovine gamma globulin in PBS), washing the plates with PBS and the coating Biotin-BBGL-1 and Biotin-BBGL-2 at concentration of 4 ug/mL (diluted in 4% BGG) for coating for IgG side of plate and at concentration of 1 ug/mL (diluted in 4% BGG) for coating for IgM side of plate. Serum samples (diluted 1:5) were then added to each well, incubated, and washed.
(§2) Detection reagents (Sulfo tag anti-lgG Fc or anti-IgM) were then added, incubated, and washed, followed by reading the plates on a Sector Imager (Meso Scale Diagnostic, Rockville, MD USA).

[2] = test system: IgG in Lyme Disease patient sera; experiment: MSD-ECL assay with Biotin-BBGL-1 / Biotin-BBGL-2 coated streptavidin plates, anti-IgG Fc detection; type: binding, human; settings: biotinylated antigen coated at 4 ug/mL; for IgG titer, EU: NC= 166.75
Procedure: as §1, §2

[3] = test system: Borrelia burgdorferi; experiment: In vitro neutralization of Borrelia burgdorferi by Day 30 serum samples from immunized mice; type: in vivo; settings: Day 30 sera of C3H/HeJ mice, n=6 per group; dosing at day 1 (77 µg/mouse per immunization, 10 µg QS-21/mouse)
Procedure: A pilot study in mice was conducted to determine the safety and in vitro efficacy of the BBGL-1 and BBGL-2 liposome vaccines in the absence or presence of the adjuvant QS-21 (Desert King International, San Diego, CA USA). Eighty-four (42 male, 42 female) C3H/HeJ mice (The Jackson Laboratory, Bar Harbor, ME USA), at approximately 7 weeks were used in the study, which is outlined in Table 17a and 17b.
7 Group of Mice (6 male and 6 female in each group) were given either 1) adjuvant alone, 2) Immunization A, 3) Adjuvant + Immunization A, 4) Immunization B, 5) Adjuvant + Immunization B, 6) Immunization A + Immunization B, or 7) Adjuvant + Immunization A + Immunization B
Immunization A and Immunization B were administered at 77 µg/mouse doses at day 1 and Day 30. Groups receiving adjuvant received 10 µg QS-21/mouse at Day 1 and Day 30.
Whole blood was collected into serum separator tubes at baseline and days 7, 15, 30, 45, and 60. Blood was allowed to clot and centrifuged at 1500xg and 10° C. for 15 minutes. Serum was aliquoted and stored at -30° C.
Serum aliquots were evaluated after 30 days, for neutralizing antibodies against Borrelia burgdorferi, B. mayonii, B. afzelii, and B. garinii using laboratory developed assays.
In vitro neutralization of Borrelia burgdorferi from Day 30 assessed with half of the mouse serum samples (n=6 per group) are shown in FIG. 7a.

Q: What does the source list for `CCCCCCCCCCCCCCCC(=O)OC[C@H]1O[C@@H](O[C@H]2CC[C@@]3(C)C(=CC[C@H]4[C@@H]5CC[C@H]([C@H](C)CCCC(C)C)[C@@]5(C)CC[C@@H]43)C2)[C@H](O)[C@@H](O)[C@H]1O` [BBGL1, cholesteryl 6-O-palmitoyl-β-D-galactopyranoside]?
A: IgM titer, Fold/Baseline ([1]; patient L1 serum diluted 1:5): 21 Fold/Baseline; IgM titer, EU ([1]; patient L1 serum diluted 1:5): 4055.50 EU; IgM titer, Fold/Baseline ([1]; patient L2 serum diluted 1:5): 2 Fold/Baseline; IgM titer, EU ([1]; patient L2 serum diluted 1:5): 390.00 EU; IgM titer, Fold/Baseline ([1]; patient L3 serum diluted 1:5): 7 Fold/Baseline; IgM titer, EU ([1]; patient L3 serum diluted 1:5): 1338.00 EU; IgG titer, Fold/Baseline ([2]; patient L1 serum diluted 1:5): 1.3 Fold/Baseline; IgG titer, EU ([2]; patient L1 serum diluted 1:5): 218.50 EU; IgG titer, Fold/Baseline ([2]; patient L2 serum diluted 1:5): 0.9 Fold/Baseline; IgG titer, EU ([2]; patient L2 serum diluted 1:5): 143.50 EU; IgG titer, Fold/Baseline ([2]; patient L3 serum diluted 1:5): 1.0 Fold/Baseline; IgG titer, EU ([2]; patient L3 serum diluted 1:5): 166.00 EU

Q: Which “IgM titer, Fold/Baseline” value ([1]; patient L1 serum diluted 1:5) does the source give for `CCCCCCCC/C=C\CCCCCCCC(=O)OC[C@H](CO[C@H]1O[C@H](CO)[C@H](O)[C@H](O)[C@H]1O)OC(=O)CCCCCCCCCCCCCCC` [BBGL2, 1-oleoyl-2-palmitoyl-3-(α-D-galactosyl)-sn-glycerol] here?
A: 18 Fold/Baseline

Q: What about the “IgM titer, EU” value ([1]; patient L1 serum diluted 1:5) of the same compound?
A: 3458.00 EU

Q: What about the “IgM titer, Fold/Baseline” value ([1]; patient L2 serum diluted 1:5) of the same compound?
A: 2 Fold/Baseline

Q: And the “IgM titer, EU” value ([1]; patient L2 serum diluted 1:5)?
A: 344.50 EU

Q: And the “IgM titer, Fold/Baseline” value ([1]; patient L3 serum diluted 1:5)?
A: 6 Fold/Baseline

Q: And the “IgM titer, EU” value ([1]; patient L3 serum diluted 1:5)?
A: 1229.50 EU

Q: What about the “IgG titer, Fold/Baseline” value ([2]; patient L1 serum diluted 1:5) of the same compound?
A: 16 Fold/Baseline

Q: And the “IgG titer, EU” value ([2]; patient L1 serum diluted 1:5)?
A: 2720.00 EU

Q: And the “IgG titer, Fold/Baseline” value ([2]; patient L2 serum diluted 1:5)?
A: 4 Fold/Baseline

Q: And the “IgG titer, EU” value ([2]; patient L2 serum diluted 1:5)?
A: 619.50 EU

Q: And the “IgG titer, Fold/Baseline” value ([2]; patient L3 serum diluted 1:5)?
A: 1.1 Fold/Baseline

Q: And the “IgG titer, EU” value ([2]; patient L3 serum diluted 1:5)?
A: 178.00 EU

Q: For QS-21, which neutralization activity [3] is on record?
A: > 15%
